This note sets out measurements from patent US20260217735A1, “HETEROCYCLES AND USES THEREOF” (Kumquat Biosciences Inc., priority 2023, published 2026).

The subject of experiment [1] is LS123 cells. Put plainly: Ras cellular assay, growth of cells with K-Ras G12S mutation (CellTiter-Glo). In kind it is cell-based. As to conditions: Homo sapiens, LS-123; KRAS G12S cell line; read-out: IC50 against LS123 cells. The procedure:
For example, this assay can be also used to assess selective growth inhibition of a mutant Ras protein relative to a wildtype or different mutant Ras protein.
A549 (ATCC CRL-185) and LS123 (ATCC CRL-255) cell lines comprise a G12S mutation and can be used to assess Ras cellular signaling in vitro, e.g., in response to treatment with a compound described herein. A549 culture medium is prepared with RPMI-1640 and 10% heat-inactivated FBS. LS123 culture medium is prepared with RPMI-1640 and 10% heat-inactivated FBS. A CellTiter-Glo (CTG) luminescent based assay (Promega) is used to assess growth of the cells, as a measurement of the ability of the compounds herein to inhibit Ras signaling in the cells. The cells (e.g., 800 per well) are seeded in their respective culture medium in standard tissue culture-treated 384-well format plates (Falcon #08-772-116) or ultra-low attachment surface 384-well format plates (S-Bio #MS-9384WZ). […] Cell viability can be monitored (e.g., approximately 6 days later) according to the manufacturer's recommended instructions, where CellTiter-Glo reagent is added (e.g., approximately 10 μL), vigorously mixed, covered, and placed on a plate shaker (e.g., approximately for 20 min) to ensure sufficient cell lysis prior to assessment of luminescent signal. The IC50 values are determined using the four parameter fit. […]

Experiment [2] concerns the target T1, KRAS G12V (Homo sapiens, UniProt P01116, G12V).
T1 construct: made in house; host or cells: E. coli, e.g. BL21 (DE3)
Put plainly: HTRF assay, KRAS G12V interaction with SOS1. The experiment is classed as biochemical. On the technique in general: TR-FRET usually uses a lanthanide donor and a delayed reading to cut background.

Experiment [3] addresses T2, KRAS G12S (Homo sapiens, UniProt P01116, G12S).
T2 construct: made in house; host or cells: E. coli, e.g. BL21 (DE3)
Kind of experiment: HTRF assay, KRAS G12S interaction with SOS1. The experiment is classed as biochemical.

Experiment [4] concerns the target T3, KRAS WT (Homo sapiens, UniProt P01116).
T3 construct: made in house; host or cells: E. coli, e.g. BL21 (DE3)
Put plainly: HTRF assay, wildtype KRAS interaction with SOS1. As to conditions: bins <500 nM / 500 nM to 1000 nM, read-out: Inhibition of KRAS WT (IC50). In kind it is biochemical.

The target in experiment [5] is T4, KRAS G12D (Homo sapiens, UniProt P01116, G12D).
T4 construct: made in house; host or cells: E. coli, e.g. BL21 (DE3)
Kind of experiment: HTRF assay, KRAS G12D interaction with SOS1. In kind it is biochemical.

Experiment [6] relates to MiaPaca2 cells. Put plainly: Ras cellular assay, growth of cells with K-Ras G12C mutation. The experiment is classed as cell-based. Conditions: Homo sapiens, MIA PaCa-2. In outline: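 MIA PaCa-2 cells (K-Ras G12C, about 125-150 cells/well) grown in 0.25% soft agar over a 0.6% agar base, compound added on day 2 at 0.3% final DMSO. Growth read on day 10 by Cell Titer 96 AQueous absorbance (490 nm, reference 660 nm) against time-zero wells; IC50 from four-parameter fit.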

[7] abbreviates: bins <500 nM / 500 nM to 1000 nM, read-out: Inhibition of KRAS G12V (IC50).
Setting [8] is: bins <500 nM / 500 nM to 1000 nM, read-out: Inhibition of KRAS G12S (IC50).
Setting [9] is: bins <500 nM / 500 nM to 1000 nM, read-out: Inhibition of KRAS G12D (IC50).
Setting [10] is: cell proliferation assay, bins ≤500 nM / >500 nM, read-out: Inhibition of MiaPaca2 Cells (IC50).

pIC50: −log10 of the molar value. Like-named read-outs stand apart in the source and are kept apart here.

As a reminder, the pIC50 is the IC50 on a negative log10 scale, so that one unit is a factor of ten.

T2 sequence (P01116 1-188 isoform P01116-2 G12S): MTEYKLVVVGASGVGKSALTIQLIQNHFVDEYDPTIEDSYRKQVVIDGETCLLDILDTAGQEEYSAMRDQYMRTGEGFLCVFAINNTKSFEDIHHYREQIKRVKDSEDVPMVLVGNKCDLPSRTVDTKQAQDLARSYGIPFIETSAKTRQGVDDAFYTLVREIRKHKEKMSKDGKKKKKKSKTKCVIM
T1 sequence (P01116 1-188 isoform P01116-2 G12V): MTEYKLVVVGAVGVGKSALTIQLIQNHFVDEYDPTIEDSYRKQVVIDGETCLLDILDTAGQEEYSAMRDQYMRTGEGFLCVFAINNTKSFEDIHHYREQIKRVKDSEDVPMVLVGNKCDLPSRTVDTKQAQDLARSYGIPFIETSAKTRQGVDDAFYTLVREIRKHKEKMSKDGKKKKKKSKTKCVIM
T4 sequence (P01116 1-188 isoform P01116-2 G12D): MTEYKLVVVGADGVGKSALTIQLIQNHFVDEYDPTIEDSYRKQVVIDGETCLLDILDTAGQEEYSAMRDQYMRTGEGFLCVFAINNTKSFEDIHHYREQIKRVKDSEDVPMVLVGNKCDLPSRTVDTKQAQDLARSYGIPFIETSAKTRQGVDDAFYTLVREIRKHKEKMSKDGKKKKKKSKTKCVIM
T3 sequence (P01116 1-188 isoform P01116-2): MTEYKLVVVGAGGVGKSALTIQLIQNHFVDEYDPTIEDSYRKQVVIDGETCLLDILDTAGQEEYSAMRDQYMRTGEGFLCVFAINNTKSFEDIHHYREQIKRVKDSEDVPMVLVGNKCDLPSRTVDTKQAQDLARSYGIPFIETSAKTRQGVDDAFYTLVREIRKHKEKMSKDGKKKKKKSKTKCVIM

`CCN(c1nc(OCC23CCCN2C(COc2cc(C(F)(F)F)ncn2)CC3)nc2c(F)c(-c3ccc(F)c4sc(N)c(C#N)c34)c(Cl)cc12)[C@@H]1CCN(C(=O)n2cc(C)nc2C)[C@@H]1C` (single isomer, unassigned) [Compound 197]: the pIC50 was 8.34 in experiment [1]; over 6.30 in experiment [2] (setting [7]); over 8.30 in experiment [2] (read-out: IC50 against KRAS G12V); over 6.30 in experiment [3] (setting [8]); over 8.30 in experiment [3] (read-out: IC50 against KRAS G12S); over 6.30 in experiment [4]. Further, the pIC50 was over 6.30 in experiment [5] (setting [9]); over 8.30 in experiment [5] (read-out: IC50 against KRAS G121); 9.38 in experiment [6] (KRAS G12C cell line, read-out: IC50 against MiaPaca2 cells).
On to `C[C@@H]1[C@H](N(C)c2nc(OC[C@@]34CCCN3C[C@H](F)C4)nc3c(F)c(-c4ccc(F)c5sc(N)c(C#N)c45)c(Cl)cc23)CCN1C(=O)n1cnc(Cl)c1` [Compound 211, 2-amino-4-(6-chloro-4-(((2R,3R)-1-(4-chloro-1H-imidazole-1-carbonyl)-2-methylpyrrolidin-3-yl)(methyl)amino)-8-fluoro-2-(((2R,7aS)-2-fluorotetrahydro-1H-pyrrolizin-7a(5H)-yl)methoxy)quinazolin-7-yl)-7-fluorobenzo[b]thiophene-3-carbonitrile], for which the negative logarithm of the IC50 (pIC50) in experiment [2] (setting [7]) is over 6.30; in experiment [3] (setting [8]), over 6.30; in experiment [4] it was over 6.30; in experiment [5] (setting [9]), over 6.30; in experiment [6] (setting [10]) it was at least 6.30.
On to `CCN(c1nc(OC[C@@]23CCCN2C[C@@]2(CC2(F)F)C3)nc2c(F)c(-c3ccc(F)c4sc(N)c(C#N)c34)c(C(F)(F)F)cc12)[C@@H]1CCN(C(=O)n2cnc(F)n2)[C@@H]1C` [Compound 212, 2-amino-4-(2-(((1S,7a′S)-2,2-difluorodihydro-1′H,3′H-spiro[cyclopropane-1,2′-pyrrolizin]-7a′(5′H)-yl)methoxy)-4-(ethyl((2R,3R)-1-(3-fluoro-1H-1,2,4-triazole-1-carbonyl)-2-methylpyrrolidin-3-yl)amino)-8-fluoro-6-(trifluoromethyl)quinazolin-7-yl)-7-fluorobenzo[b]thiophene-3-carbonitrile], for which the pIC50 in experiment [2] (setting [7]) is over 6.30; in experiment [3] (setting [8]) it was over 6.30; in experiment [4], over 6.30; in experiment [5] (setting [9]), over 6.30; in experiment [6] (setting [10]) it was at least 6.30.
Take `CC(C)c1cn(C(=O)N2CC[C@@H](N(C)c3nc(OC[C@@]45CCCN4C[C@H](F)C5)nc4c(F)c(-c5ccc(F)c6sc(N)c(C#N)c56)c(Cl)cc34)[C@H]2C)cn1` [Compound 213, 2-amino-4-(6-chloro-8-fluoro-2-(((2R,7aS)-2-fluorotetrahydro-1H-pyrrolizin-7a(5H)-yl)methoxy)-4-(((2R,3R)-1-(4-isopropyl-1H-imidazole-1-carbonyl)-2-methylpyrrolidin-3-yl)(methyl)amino)quinazolin-7-yl)-7-fluorobenzo[b]thiophene-3-carbonitrile]: the pIC50 in experiment [2] (setting [7]) was over 6.30; in experiment [3] (setting [8]), over 6.30; in experiment [4] it was over 6.30; in experiment [5] (setting [9]), over 6.30; in experiment [6] (setting [10]) it was at least 6.30.
For `CC[C@H]1N(C(=O)n2cnc(C)c2C)C[C@]12CCCCN(c1nc(OC[C@@]34CCCN3C[C@H](F)C4)nc3c(F)c(-c4ccc(F)c5sc(N)c(C#N)c45)c(Cl)cc13)C2` [Compound 215, 2-amino-4-(6-chloro-4-((1R,4R)-2-(4,5-dimethyl-1H-imidazole-1-carbonyl)-1-ethyl-2,6-diazaspiro[3.6]decan-6-yl)-8-fluoro-2-(((2R,7aS)-2-fluorotetrahydro-1H-pyrrolizin-7a(5H)-yl)methoxy)quinazolin-7-yl)-7-fluorobenzo[b]thiophene-3-carbonitrile], the negative logarithm of the IC50 (pIC50) was over 6.30 in experiment [2] (setting [7]); over 6.30 in experiment [3] (setting [8]); over 6.30 in experiment [4]; over 6.30 in experiment [5] (setting [9]); at least 6.30 in experiment [6] (setting [10]).
Consider `CC(C)[C@@H]1C[C@H](N(C)c2nc(OC[C@@]34CCCN3C[C@H](F)C4)nc3c(F)c(-c4ccc(F)c5sc(N)c(C#N)c45)c(Cl)cc23)CN1C(=O)n1cnc(Cl)n1` [Compound 216, 2-amino-4-(6-chloro-4-(((3S,5S)-1-(3-chloro-1H-1,2,4-triazole-1-carbonyl)-5-isopropylpyrrolidin-3-yl)(methyl)amino)-8-fluoro-2-(((2R,7aS)-2-fluorotetrahydro-1H-pyrrolizin-7a(5H)-yl)methoxy)quinazolin-7-yl)-7-fluorobenzo[b]thiophene-3-carbonitrile], for which the pIC50 in experiment [2] (setting [7]) is over 6.30; in experiment [3] (setting [8]), over 6.30; in experiment [4], over 6.30; in experiment [5] (setting [9]), 6.00 to 6.30; in experiment [6] (setting [10]), under 6.30.
For `CN(c1nc(OC[C@@]23CCCN2C[C@H](F)C3)nc2c(F)c(-c3ccc(F)c4sc(N)c(C#N)c34)c(Cl)cc12)[C@H]1CCN(C(=O)n2ccnc2)C1` [Compound 218, 4-(4-(((S)-1-(1H-imidazole-1-carbonyl)pyrrolidin-3-yl)(methyl)amino)-6-chloro-8-fluoro-2-(((2R,7aS)-2-fluorotetrahydro-1H-pyrrolizin-7a(5H)-yl)methoxy)quinazolin-7-yl)-2-amino-7-fluorobenzo[b]thiophene-3-carbonitrile], the negative logarithm of the IC50 (pIC50) was over 6.30 in experiment [2] (setting [7]); over 6.30 in experiment [3] (setting [8]); over 6.30 in experiment [4]; over 6.30 in experiment [5] (setting [9]); at least 6.30 in experiment [6] (setting [10]).
With `C[C@@H]1[C@H](N(C)c2nc(OC[C@@]34CCCN3C[C@H](F)C4)nc3c(F)c(-c4ccc(F)c5sc(N)c(C#N)c45)c(Cl)cc23)CCN1C(=O)n1cc(C#N)cn1` [Compound 220, 1-((2R,3R)-3-((7-(2-amino-3-cyano-7-fluorobenzo[b]thiophen-4-yl)-6-chloro-8-fluoro-2-(((2R,7aS)-2-fluorotetrahydro-1H-pyrrolizin-7a(5H)-yl)methoxy)quinazolin-4-yl)(methyl)amino)-2-methylpyrrolidine-1-carbonyl)-1H-pyrazole-4-carbonitrile], the negative logarithm of the IC50 (pIC50) in experiment [2] (setting [7]) was over 6.30; in experiment [3] (setting [8]), over 6.30; in experiment [4] it was over 6.30; in experiment [5] (setting [9]), over 6.30; in experiment [6] (setting [10]) it was at least 6.30.
